# Measured values: PubChem BioAssay (NCI)
#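 The compound was tested at five concentrations on cells cultured in 96-well plates, with a 48-hour exposure period. GI50 = concentration required for 50% inhibition of growth. Definition used: TGI = concentration required for complete inhibition of growth.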
# Key:
# Experiment in all cases: DTP human tumour cell line panel, 48 h
# MALME-3M melanoma = tested on: MALME-3M melanoma
# HL-60(TB) leukemia = tested on: HL-60(TB) leukemia
# TK-10 renal = tested on: TK-10 renal
# CCRF-CEM leukemia = tested on: CCRF-CEM leukemia
# HCC-2998 colon = tested on: HCC-2998 colon
# OVCAR-8 ovarian = tested on: OVCAR-8 ovarian
# HCT-15 colon = tested on: HCT-15 colon
# NCI-H460 lung = tested on: NCI-H460 lung
# CAKI-1 renal = tested on: CAKI-1 renal
# HOP-62 NSCLC = tested on: HOP-62 NSCLC
# SN12C renal = tested on: SN12C renal
# MDA-MB-468 breast = tested on: MDA-MB-468 breast
# EKVX NSCLC = tested on: EKVX NSCLC
# IGROV1 ovarian = tested on: IGROV1 ovarian
# SW-620 colon = tested on: SW-620 colon
# MDA-MB-435 = tested on: MDA-MB-435
# RXF 393 renal = tested on: RXF 393 renal
# ACHN renal = tested on: ACHN renal
# UACC-62 melanoma = tested on: UACC-62 melanoma
# A549 NSCLC = tested on: A549 NSCLC
# SF-539 CNS = tested on: SF-539 CNS
# HOP-92 NSCLC = tested on: HOP-92 NSCLC
# UACC-257 melanoma = tested on: UACC-257 melanoma
# SNB-75 CNS = tested on: SNB-75 CNS
# SNB-19 CNS = tested on: SNB-19 CNS
# MOLT-4 leukemia = tested on: MOLT-4 leukemia
# NCI-H23 lung = tested on: NCI-H23 lung
# SK-MEL-28 melanoma = tested on: SK-MEL-28 melanoma
# OVCAR-5 ovarian = tested on: OVCAR-5 ovarian
# K-562 leukemia = tested on: K-562 leukemia
# U251 CNS = tested on: U251 CNS
# LOX IMVI melanoma = tested on: LOX IMVI melanoma
# COLO 205 colon = tested on: COLO 205 colon
# UO-31 renal = tested on: UO-31 renal
# 786-0 renal = tested on: 786-0 renal
# NCI-H226 lung = tested on: NCI-H226 lung
# DU-145 prostate = tested on: DU-145 prostate
# HCT-116 colon = tested on: HCT-116 colon
# OVCAR-4 ovarian = tested on: OVCAR-4 ovarian
# MCF7 breast = tested on: MCF7 breast
# PC-3 prostate = tested on: PC-3 prostate
# NCI-H522 lung = tested on: NCI-H522 lung
# SK-OV-3 ovarian = tested on: SK-OV-3 ovarian
# MDA-MB-231 breast = tested on: MDA-MB-231 breast
# OVCAR-3 ovarian = tested on: OVCAR-3 ovarian
# M14 melanoma = tested on: M14 melanoma
# HS 578T breast = tested on: HS 578T breast
# NCI/ADR-RES ovarian = tested on: NCI/ADR-RES ovarian
# RPMI-8226 leukemia = tested on: RPMI-8226 leukemia
# SF-268 CNS = tested on: SF-268 CNS
# SK-MEL-5 melanoma = tested on: SK-MEL-5 melanoma
# SR leukemia = tested on: SR leukemia
# SK-MEL-2 melanoma = tested on: SK-MEL-2 melanoma
# BT-549 breast = tested on: BT-549 breast
# SF-295 CNS = tested on: SF-295 CNS
# A498 renal = tested on: A498 renal
# KM12 colon = tested on: KM12 colon
# HT29 colon = tested on: HT29 colon
compound,measurement,setting,value
O=C1NC(=S)S/C1=C\c1cn(-c2ccccc2)nc1-c1ccc([N+](=O)[O-])cc1,GI50,MALME-3M melanoma,1.96 µM
same,TGI,MALME-3M melanoma,6.4 µM
same,GI50,HL-60(TB) leukemia,2.78 µM
same,TGI,HL-60(TB) leukemia,21.2 µM
same,GI50,TK-10 renal,3.81 µM
same,TGI,TK-10 renal,> 100 µM
same,GI50,CCRF-CEM leukemia,2.33 µM
same,TGI,CCRF-CEM leukemia,> 100 µM
same,GI50,HCC-2998 colon,2.88 µM
same,TGI,HCC-2998 colon,12.6 µM
same,GI50,OVCAR-8 ovarian,3.68 µM
same,TGI,OVCAR-8 ovarian,23.4 µM
same,GI50,HCT-15 colon,2.1 µM
same,TGI,HCT-15 colon,12.9 µM
same,GI50,NCI-H460 lung,2.05 µM
same,TGI,NCI-H460 lung,5.8 µM
same,GI50,CAKI-1 renal,3.04 µM
same,TGI,CAKI-1 renal,13.5 µM
same,GI50,HOP-62 NSCLC,3.45 µM
same,TGI,HOP-62 NSCLC,16.5 µM
same,GI50,SN12C renal,2.53 µM
same,TGI,SN12C renal,15.2 µM
same,GI50,MDA-MB-468 breast,1.9 µM
same,TGI,MDA-MB-468 breast,10.8 µM
same,GI50,EKVX NSCLC,2.6 µM
same,TGI,EKVX NSCLC,10.4 µM
same,GI50,IGROV1 ovarian,3.4 µM
same,TGI,IGROV1 ovarian,14.8 µM
same,GI50,SW-620 colon,3.27 µM
same,TGI,SW-620 colon,> 100 µM
same,GI50,MDA-MB-435,2.86 µM
same,TGI,MDA-MB-435,11.7 µM
same,GI50,RXF 393 renal,3.2 µM
same,TGI,RXF 393 renal,8.61 µM
same,GI50,ACHN renal,3.04 µM
same,TGI,ACHN renal,13.4 µM
same,GI50,UACC-62 melanoma,1.23 µM
same,TGI,UACC-62 melanoma,3.18 µM
same,GI50,A549 NSCLC,3.16 µM
same,TGI,A549 NSCLC,25.3 µM
same,GI50,SF-539 CNS,3.45 µM
same,TGI,SF-539 CNS,13.8 µM
same,GI50,HOP-92 NSCLC,2.73 µM
same,TGI,HOP-92 NSCLC,8.64 µM
same,GI50,UACC-257 melanoma,2.43 µM
same,TGI,UACC-257 melanoma,7.67 µM
same,GI50,SNB-75 CNS,1.83 µM
same,TGI,SNB-75 CNS,11.5 µM
same,GI50,SNB-19 CNS,3.46 µM
same,TGI,SNB-19 CNS,23.2 µM
same,GI50,MOLT-4 leukemia,2.89 µM
same,TGI,MOLT-4 leukemia,> 100 µM
same,GI50,NCI-H23 lung,2.19 µM
same,TGI,NCI-H23 lung,8.15 µM
same,GI50,SK-MEL-28 melanoma,2.68 µM
same,TGI,SK-MEL-28 melanoma,9.82 µM
same,GI50,OVCAR-5 ovarian,5.53 µM
same,TGI,OVCAR-5 ovarian,26.7 µM
same,GI50,K-562 leukemia,2.53 µM
same,TGI,K-562 leukemia,> 100 µM
same,GI50,U251 CNS,2.94 µM
same,TGI,U251 CNS,11 µM
same,GI50,LOX IMVI melanoma,3.22 µM
same,TGI,LOX IMVI melanoma,12.8 µM
same,GI50,COLO 205 colon,3.5 µM
same,TGI,COLO 205 colon,17.6 µM
same,GI50,UO-31 renal,2.5 µM
same,TGI,UO-31 renal,11.9 µM
same,GI50,786-0 renal,3.49 µM
same,TGI,786-0 renal,13.5 µM
same,GI50,NCI-H226 lung,2.49 µM
same,TGI,NCI-H226 lung,12.1 µM
same,GI50,DU-145 prostate,3.63 µM
same,TGI,DU-145 prostate,> 100 µM
same,GI50,HCT-116 colon,2.71 µM
same,TGI,HCT-116 colon,10.9 µM
same,GI50,OVCAR-4 ovarian,2.6 µM
same,TGI,OVCAR-4 ovarian,16.4 µM
same,GI50,MCF7 breast,2.74 µM
same,TGI,MCF7 breast,> 100 µM
same,GI50,PC-3 prostate,2.71 µM
same,TGI,PC-3 prostate,> 100 µM
same,GI50,NCI-H522 lung,2.39 µM
same,TGI,NCI-H522 lung,18.7 µM
same,GI50,SK-OV-3 ovarian,3.33 µM
same,TGI,SK-OV-3 ovarian,12.9 µM
same,GI50,MDA-MB-231 breast,4.17 µM
same,TGI,MDA-MB-231 breast,16.9 µM
same,GI50,OVCAR-3 ovarian,2.95 µM
same,TGI,OVCAR-3 ovarian,12.4 µM
same,GI50,M14 melanoma,3.4 µM
same,TGI,M14 melanoma,14.2 µM
same,GI50,HS 578T breast,2.56 µM
same,TGI,HS 578T breast,9.27 µM
same,GI50,NCI/ADR-RES ovarian,2.83 µM
same,TGI,NCI/ADR-RES ovarian,12.3 µM
same,GI50,RPMI-8226 leukemia,2.66 µM
same,TGI,RPMI-8226 leukemia,> 100 µM
same,GI50,SF-268 CNS,3.01 µM
same,TGI,SF-268 CNS,> 100 µM
same,GI50,SK-MEL-5 melanoma,1.34 µM
same,TGI,SK-MEL-5 melanoma,3.3 µM
same,GI50,SR leukemia,4.3 µM
same,TGI,SR leukemia,> 100 µM
same,GI50,SK-MEL-2 melanoma,2.42 µM
same,TGI,SK-MEL-2 melanoma,7.46 µM
same,GI50,BT-549 breast,2.15 µM
same,TGI,BT-549 breast,6.51 µM
same,GI50,SF-295 CNS,2.39 µM
same,TGI,SF-295 CNS,11.2 µM
same,GI50,A498 renal,2.68 µM
same,TGI,A498 renal,8.93 µM
same,GI50,KM12 colon,3.34 µM
same,TGI,KM12 colon,15.4 µM
same,GI50,HT29 colon,3.86 µM
same,TGI,HT29 colon,89.5 µM
